US20120178124A1, “STEROL SIDE CHAIN-CLEAVING ENZYME PROTEIN AND USE THEREOF” (MITSUBISHI CHEMICAL CORPORATION, priority 2009, published 2012)
Read-outs that look alike come from different tables or passages of the source.

How the values were obtained:
CYPSS204A = test: Conversion reaction of substrates by Escherichia coli expression strain BP215; type: cell-based, Sphingomonas subterranea NBRC 16086
Procedure: The temperature conditions applied during the PCR were 95° C./5 min, 30 cycles of (98° C./30 sec, 60° C./30 sec, and 68° C./2 min), and 68° C./10 min.
Analysis conditions: Using Chromolith speed rod RP18e (50×4.6 mm) column, 50%→100% CH3CN gradient (0 to 3 min) and 100% CH3CN (3 to 8 min) were used as a mobile phase, and detection was carried out at a flow rate of 2 ml/min using CAD™ (Charged Aerosol Detection) and MS.

CYP204A1 = details: for accumulated amount of pregnenolone / added substrate remained: strain BP172, same reaction as Example 6; for Conversion rate: strain BP172, same reaction as Example 6 (28° C., 5 hours)
Procedure: Novosphingobium aromaticivorans (ATCC 700278) was inoculated into an L medium, and it was then cultured at 30° C. for 2 days. Thereafter, genomic DNA was extracted from the cell mass obtained in the same manner as that of Example 1. A fragment comprising a CYPSS204A1 gene and a ferredoxin gene located downstream thereof was amplified from the above-described genomic DNA by using a primer CYP-5F (SEQ ID NO: 9) and a primer CYP-6R (SEQ ID NO: 10) and also using La Taq polymerase (manufactured by Takara Bio INC.). The temperature conditions applied during this operation were 94° C./3 min, 30 cycles of (98° C./20 sec, 63° C./30 sec, and 68° C./2 min), and 72° C./5 min.
Escherichia coli BL21(DE3) was transformed with this plasmid, and the obtained cell strain was named as BP172.
(§1) The Escherichia coli expression strain BP215 was inoculated into 2 ml of an M9 mix medium (Na2HPO4: 0.68%, KH2PO4: 0.3%, NaCl: 0.05%, NH4C;: 0.01%, Casamino acid: 1%, D-Glucose: 0.4%, CaCl2: 0.1 mM, MgCl2: 1 mM, Thiamine: 0.002%, FeSO4: 0.1 mM, Carbenicillin: 0.005%), and it was then subjected to shaking culture at 30° C. for 17 hours, so as to obtain pre-culture solution. 0.25 ml of this pre-culture solution was inoculated into 25 ml of the main culture medium (Na2HPO4: 0.68%, KH2PO4: 0.3%, NaCl: 0.05%, NH4Cl: 0.01%, Casamino acid: 1%, CaCl2: 0.1 mM, MgCl2: 1 mM, Thiamine: 0.002%, FeSO4: 0.1 mM, Carbenicillin: 0.005%, Overnight Express™ solution: 7%, 5-Aminolevlic acid: 0.008%) using Overnight Express™ Autoinduction System (Novagen Cat. No. 71300-4), and it was then subjected to shaking culture at 25° C. for 24 hours. 5 ml of the obtained main culture solution was centrifuged (3500 rpm, 10 minutes) to obtain cell mass, and 1 ml of CV2 buffer (50 mM (pH) potassium phosphate buffer containing glycerol: 2%, carbenicillin: 0.005%, and isopropyl β-D-1-thiogalactopyranoside: 0.1 mM) was added to the obtained cell mass. Thereafter, 0.01 ml of the methanol solution of 1% 4-cholesten-3-one and 0.02 ml of an aqueous solution of 25% methyl-β-cyclodextrin were added to the mixed solution, and the obtained mixture was then shaken at 28° C. for 5 hours for the reaction. After completion of the reaction, 4 ml of methanol was added to the reaction solution, and they were then fully mixed. The obtained mixture was centrifuged, and the upper layer was then analyzed by HPLC.
As substrates, 4-cholesten-3-one, cholesterol, 7-dehydrocholesterol, ergosterol, 13-sitosterol, stigmasterol, campesterol, desmosterol, (20S)-20-hydroxycholest-4-en-3-one, (22R)-22-hydroxycholest-4-en-3-one, (20R,22R)-20,22-dihydroxycholest-4-en-3-one, and (20R,22S)-20,22-dihydroxycholest-4-en-3-one were used. Each substrate was subjected to the same reaction as that of Example 6, separately, and the generated product was then analyzed by HPLC.

CYP11A = target: T1, CYP11A (Homo sapiens, UniProt P05108); test: Conversion reaction of substrates by CYP11A-expressing Escherichia coli; type: cell-based; details: for accumulated amount of pregnenolone / added substrate remained: same reaction as Example 6; for Conversion rate: same reaction as Example 6 (28° C., 5 hours)
T1 construct: A 1.45-kb CYP11A1 gene fragment amplified as a result of the above-described reaction; expressed in transfected cells; host or cells: Escherichia coli BL21(DE3), plasmid pCYP11A-ARX (strain BL21CYP11)
T1 sequence (P05108 40-521): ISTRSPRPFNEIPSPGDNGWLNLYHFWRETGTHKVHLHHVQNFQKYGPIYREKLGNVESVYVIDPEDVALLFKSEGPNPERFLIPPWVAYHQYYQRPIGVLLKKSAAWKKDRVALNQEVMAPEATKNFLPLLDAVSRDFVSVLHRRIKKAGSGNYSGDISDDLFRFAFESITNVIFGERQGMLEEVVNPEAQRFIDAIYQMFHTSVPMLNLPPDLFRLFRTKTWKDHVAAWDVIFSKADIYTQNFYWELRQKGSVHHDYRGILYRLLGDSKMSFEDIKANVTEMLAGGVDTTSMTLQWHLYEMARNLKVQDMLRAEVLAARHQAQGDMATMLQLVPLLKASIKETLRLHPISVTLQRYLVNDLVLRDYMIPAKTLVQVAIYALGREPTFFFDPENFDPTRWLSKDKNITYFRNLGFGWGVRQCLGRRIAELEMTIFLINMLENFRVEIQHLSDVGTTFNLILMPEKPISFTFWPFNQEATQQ
Procedure: as §1
A commercially available human testis cDNA (Origene Technologies, Inc.) was used as a template, and a CYP11A1 gene was amplified by PCR using a primer CYP11A-1F (SEQ ID NO: 19) and a primer CYP11A-2R (SEQ ID NO: 20), and also using KOD plus polymerase (TOYOBO Co., Ltd.). The temperature conditions applied during the PCR were 94° C./3 min, 30 cycles of (94° C./30 sec, 55° C./60 sec, and 72° C./90sec), and 72° C./5 min.
A 1.45-kb CYP11A1 gene fragment amplified as a result of the above-described reaction was purified using QIAquick PCR purification Kit (manufactured by QIAGEN), and it was then digested with Nde I and Spe I. Thereafter, the digest was ligated to Escherichia coli expression vector pT7NS-camAB, using T4 DNA ligase, and Escherichia coli DH5α was then transformed with the obtained expression vector, so as to construct a plasmid pCYP11A-camAB. Subsequently, using T4 DNA ligase, the previously prepared bovine-derived adrenodoxin reductase protein-adrenodoxin gene (adr-adx) fragment was inserted into and ligated to each of the Spe I and Bam HI sites of the above-described plasmid, and Escherichia coli DH5a was then transformed with the obtained plasmid, so as to construct plasmid pCYP11A-ARX. Thereafter, Escherichia coli BL21(DE3) was transformed with the thus constructed plasmid, and the obtained cell strain was named as BL21CYP11. The used adx-adr fragment was amplified by PCR with a plasmid pKARX (Sawada et. al. Eur. J. Biochem. 265, 950-956,1999) as a template, using primer bAdxR-1F (SEQ ID NO: 21) and primer bAdx-2R (SEQ ID NO: 22), and also using KOD plus polymerase (manufactured by TOYOBO Co., Ltd.). The temperature condition applied during the PCR were 94° C./3 min, 25 cycles of (94° C./30 sec, 60° C./30 sec, and 72° C./120sec), and 72° C./5 min.
Each substrate was subjected to the same reaction as that of Example 6, separately, and the reaction solution was then subjected to liquid separation using 1 ml of ethyl acetate. The reaction product and the substrate were extracted, and were then analyzed by HPLC.

[1] = strain BP215, 28° C., 5 hours, to progesterone, pregnenolone or 7-dehydropregnenolone

CC(C)CC[C@H](O)[C@@H](C)[C@H]1CC[C@H]2[C@@H]3CC=C4C[C@@H](O)CC[C@]4(C)[C@H]3CC[C@]12C [(22S)-22-hydroxy-cholesterol]
accumulated amount of pregnenolone (CYPSS204A; strain BP215, 28° C., 5 hours): 37.5 mg/L
added substrate remained (CYPSS204A; strain BP215, 28° C., 5 hours): 23.5%
Conversion rate (CYPSS204A; [1]): 37.5%
accumulated amount of pregnenolone (CYP204A1): 12.9 mg/L
added substrate remained (CYP204A1): 60.1%
Conversion rate (CYP204A1): 12.9%
accumulated amount of pregnenolone (CYP11A): 6.1 mg/L
added substrate remained (CYP11A): 92.6%
Conversion rate (CYP11A): 6.1%

CC(C)CC[C@@H](O)[C@@H](C)[C@H]1CC[C@H]2[C@@H]3CC=C4C[C@@H](O)CC[C@]4(C)[C@H]3CC[C@]12C [(22R)-22-hydroxy-cholesterol]
accumulated amount of pregnenolone (CYPSS204A; strain BP215, 28° C., 5 hours): 80.0 mg/L
added substrate remained (CYPSS204A; strain BP215, 28° C., 5 hours): 14.8%
Conversion rate (CYPSS204A; [1]): 80%
accumulated amount of pregnenolone (CYP204A1): 69.5 mg/L
added substrate remained (CYP204A1): 42.8%
Conversion rate (CYP204A1): 69.5%
accumulated amount of pregnenolone (CYP11A): 28.0 mg/L
added substrate remained (CYP11A): 78.6%
Conversion rate (CYP11A): 28.0%

CC[C@H](/C=C/[C@@H](C)[C@H]1CC[C@H]2[C@@H]3CC=C4C[C@@H](O)CC[C@]4(C)[C@H]3CC[C@]12C)C(C)C [stigmasterol]
accumulated amount of side-chain cleavage product (CYPSS204A; strain BP215, 28° C., 5 hours): 5.8 mg/L
added substrate remained (CYPSS204A; strain BP215, 28° C., 5 hours): 70.8%
Conversion rate (CYPSS204A; [1]): 5.8%
Conversion rate (CYP204A1): 6.5%
added substrate remained (CYP11A): 100%
Conversion rate (CYP11A): 0%

CC(C)=CCC[C@@H](C)[C@H]1CC[C@@]2(C)C3=C(CC[C@]12C)[C@@]1(C)CC[C@H](O)C(C)(C)[C@@H]1CC3 [Lano, lanosterol]
Conversion rate (CYPSS204A; [1]): 0%
Conversion rate (CYP204A1): 0%
Conversion rate (CYP11A): 0%

CC(C)CC[C@@H](O)[C@](C)(O)[C@H]1CC[C@H]2[C@@H]3CC=C4C[C@@H](O)CC[C@]4(C)[C@H]3CC[C@]12C [(20R,22R)-20,22-dihydroxy-cholesterol]
accumulated amount of pregnenolone (CYPSS204A; strain BP215, 28° C., 5 hours): 53.0 mg/L
added substrate remained (CYPSS204A; strain BP215, 28° C., 5 hours): 0%
Conversion rate (CYPSS204A; [1]): 53.0%
accumulated amount of pregnenolone (CYP204A1): 51.6 mg/L
added substrate remained (CYP204A1): 0%
Conversion rate (CYP204A1): 51.6%
accumulated amount of pregnenolone (CYP11A): 32.3 mg/L
added substrate remained (CYP11A): 51.6%
Conversion rate (CYP11A): 32.3%

CC(C)CC[C@@H](O)[C@](C)(O)[C@H]1CC[C@H]2[C@@H]3CCC4=CC(=O)CC[C@]4(C)[C@H]3CC[C@]12C [(20R,22R)-20,22-dihydroxycholest-4-en-3-one]
added substrate remained (CYPSS204A; strain BP215, 28° C., 5 hours): 0.6%
Conversion rate (CYPSS204A; [1]): 38.1%
Conversion rate (CYP204A1): 61.3%
added substrate remained (CYP11A): 95%
Conversion rate (CYP11A): 4.3%

CC(C)CCC[C@](C)(O)[C@H]1CC[C@H]2[C@@H]3CC=C4C[C@@H](O)CC[C@]4(C)[C@H]3CC[C@@]21C [(20S)-20-hydroxy-cholesterol]
accumulated amount of pregnenolone (CYPSS204A; strain BP215, 28° C., 5 hours): 89.2 mg/L
added substrate remained (CYPSS204A; strain BP215, 28° C., 5 hours): 0%
Conversion rate (CYPSS204A; [1]): 89.2%
accumulated amount of pregnenolone (CYP204A1): 68.2 mg/L
added substrate remained (CYP204A1): 25.2%
Conversion rate (CYP204A1): 68.2%
accumulated amount of pregnenolone (CYP11A): 16.3 mg/L
added substrate remained (CYP11A): 98.8%
Conversion rate (CYP11A): 16.3%

CC(C)CCC[C@@H](C)[C@H]1CC[C@H]2[C@@H]3CC=C4C[C@@H](O)CC[C@]4(C)[C@H]3CC[C@]12C [cholesterol]
accumulated amount of side-chain cleavage product (CYPSS204A; strain BP215, 28° C., 5 hours): 68.2 mg/L
added substrate remained (CYPSS204A; strain BP215, 28° C., 5 hours): 3.7%
Conversion rate (CYPSS204A; [1]): 68.2%
Conversion rate (CYP204A1): 71.2%
added substrate remained (CYP11A): 99%
Conversion rate (CYP11A): 2.6%

CC(C)CCC[C@](C)(O)[C@H]1CC[C@H]2[C@@H]3CCC4=CC(=O)CC[C@]4(C)[C@H]3CC[C@@]21C [(20S)-20-hydroxycholest-4-en-3-one]
added substrate remained (CYPSS204A; strain BP215, 28° C., 5 hours): 4.8%
Conversion rate (CYPSS204A; [1]): 41.0%
Conversion rate (CYPSS204A; strain BP215, 28° C., 5 hours, to progesterone, pregnenolone or 7-dehydropregnenolone, listed as 20-OH): 41%
Conversion rate (CYP204A1): 63.9%
added substrate remained (CYP11A): 100%
Conversion rate (CYP11A): 0%

CC(C)CCC[C@@H](C)[C@H]1CC[C@H]2C3=CC=C4C[C@@H](O)CC[C@]4(C)[C@H]3CC[C@]12C [7-dehydrocholesterol]
accumulated amount of side-chain cleavage product (CYPSS204A; strain BP215, 28° C., 5 hours): 34.3 mg/L
added substrate remained (CYPSS204A; strain BP215, 28° C., 5 hours): 54%
Conversion rate (CYPSS204A; [1]): 34.3%
Conversion rate (CYP204A1): 28.5%
added substrate remained (CYP11A): 99.2%
Conversion rate (CYP11A): 0.7%

CC(C)[C@@H](C)/C=C/[C@@H](C)[C@H]1CC[C@H]2C3=CC=C4C[C@@H](O)CC[C@]4(C)[C@H]3CC[C@]12C [ergosterol]
Conversion rate (CYPSS204A): 2.8%
accumulated amount of side-chain cleavage product (CYPSS204A; strain BP215, 28° C., 5 hours): 2.8 mg/L
added substrate remained (CYP11A): 100%
Conversion rate (CYP11A): 0%

CC(C)CC[C@@H](O)[C@@H](C)[C@H]1CC[C@H]2[C@@H]3CCC4=CC(=O)CC[C@]4(C)[C@H]3CC[C@]12C [(22R)-22-hydroxycholest-4-en-3-one]
added substrate remained (CYPSS204A; strain BP215, 28° C., 5 hours): 2.7%
Conversion rate (CYPSS204A; [1]): 42.3%
Conversion rate (CYP204A1): 80.9%
added substrate remained (CYP11A): 99.7%
Conversion rate (CYP11A): 0.4%
